Source: patent publication US6228626A, “Sarcosine oxidase and process for producing the same” (priority 1998, dated 2001)

Target: mutant sarcosine oxidase from E. coli JM109 (pSO12 EH), FERM BP-6597; mutant of Bacillus sp. NS-129 sarcosine oxidase (wild type SEQ ID NO: 1) (Bacillus sp. NS-129, UniProt P23342)
Assay: Km determination by sarcosine oxidase enzyme assay (formaldehyde/acetyl-acetone colour), Lineweaver-Burk plot
Assay type: biochemical
Details: read-out: Km value (for sarcosine), phosphate buffer pH7.7, 37° C., 10 minutes
Method: 0.25M phosphate buffer (0.1 ml, pH7.7), 0.2 M sarcosine solution (0.3 ml) and the enzyme solution with an appropriate concentration (0.1 ml) were mixed and reacted at 37° C. for 10 minutes. Then, 1.0 N acetic acid solution (0.5 ml) was added to the mixture to stop the reaction. To the mixture was added 3 ml of acetyl-acetone color-developing solution (acetyl-acetone, 0.2%(v/v) and diammonium hydrogenphosphate, 10%(w/v) ) (pH6.5) to develop the color at 37° C. for 40 minutes. The absorbance was determined at 410 nm by spectrophotometer. Then, the yield of the enzyme was estimated from the calibration curve of formaldehyde prepared beforehand. The amount of the enzyme which produces 1 μmole of formaldehyde per minute at 37° C. was defined as 1 unit.
The Km value of the enzyme was determined using the assay as described above.

Compound: CNCC(=O)O [sarcosine]
- Km: ~3.5 mM
